The values below come from article PMC8524858, “Dual inhibition of αvβ6 and αvβ1 reduces fibrogenesis in lung tissue explants from patients with IPF” (Respiratory Research, 2021).

The target in assay [1] is T1, human integrin αvβ3 (Homo sapiens, UniProt P05106+P06756).
T1 construct: purchased R&D Systems 3050-AV
Nature of the assay: Integrin ligand-binding assay, αvβ3 (vitronectin ligand). As to the method:
(§1) Integrin ligand-binding assays were performed similar to that previously described.
(§2) Microplates were coated with recombinant human integrins dissolved in PBS (2 µg/ml, overnight at room temperature). Following removal of the coating solution, plates were washed with PBS. Plates were blocked with 200 µL/well of blocking buffer (2% bovine serum albumin [BSA] in PBS) at 37 °C for 1 h. […] Plates were incubated for 2 h at 25 °C, washed, and incubated for 1 h with biotin-labeled anti-fibronectin or anti-LAP antibodies (for αvβ1 or αvβ6/αvβ8, respectively).

Assay [2] deals with T2, human integrin αvβ5 (Homo sapiens, UniProt P06756+P18084).
T2 construct: purchased R&D Systems 2528-AV
Description: Integrin ligand-binding assay, αvβ5 (vitronectin ligand). As to the method: as §1, §2

Assay [3] deals with T3, αvβ6-induced TGF-β activation (Homo sapiens, UniProt P06756+P18564).
T3 construct: expressed in transfected cells; host or cells: SW480 cells stably transfected with β6 (SW-β6), co-cultured with MLEC reporter cells
Description: TGF-β co-culture assay, SW-β6 cells with MLEC luciferase reporter cells. Type of assay: cell-based. The conditions noted are these: integrin αvβ6. As to the method: SW-β6 cells and MLECs or CHO-αv cells and MLECs were cultured in 96-well plates with test compounds or antibodies for 20 h at 37 °C in a 5% CO2 incubator. […] Measurement of MLEC luciferase production resulting from αvβ6- or αvβ1-mediated TGF-β activation was performed using the Bright-Glo Luciferase Assay System (Promega; Madison, WI, USA) according to manufacturer’s instruction. Luminescence was quantified by a Tecan Spark 10M plate reader. IC50 curves were generated using Dotmatics software suite with five-parameter logistic curve fitting. Geometric mean IC50 was calculated for each compound from multiple independent analyses.

Assay [4] deals with bleomycin-challenged C57BL/6 mice. Nature of the assay: In vivo bleomycin mouse model of pulmonary fibrosis. The conditions noted are these: Day 7 to Day 21 after bleomycin. As to the method: C57BL/6 mice (Charles River; Hollister, CA, USA) were administered 3 units/kg bleomycin (Teva; Toronto, ON, Canada) or vehicle (water) via oropharyngeal aspiration. Lung tissue and bronchioalveolar lavage (BAL) cells were collected after 14 or 21 days to evaluate Smad phosphorylation and collagen deposition.
OHP levels and fractional synthesis rates were determined similar to that previously described.
Formalin-fixed, paraffin-embedded mouse lung tissue sections underwent SHG imaging to characterize the quantity and quality of fibrillar collagen deposition using methods similar to that previously described.
For pSmad3 and total Smad3 quantitation, lung tissues or bronchoalveolar lavage (BAL) cells were lysed in RIPA buffer with protease inhibitor cocktail (Thermo Fisher; #78442). Total protein concentration was normalized across lysates following quantitation by bicinchoninic acid protein assay (Thermo Fisher; #23225). MSD GOLD 96 Small Spot Streptavidin plates were rinsed with PBST, followed by incubation with 1 µg/ml of biotinylated anti-Smad2/3 antibody under agitation for 1 h. Following a second rinse, a 50:50 mix of unknown sample and PBST was added to duplicate wells. Following a 1 h incubation and another rinse, 1 µg/ml of sulfo-tag-labeled anti-pSmad3 or anti-Smad3 antibody was added and incubated for 1 h under agitation. After a final rinse, 1x read buffer was added and the plate was read using an MSD sector imager instrument (SECTOR S 600). pSmad3/Smad3 signal ratios were compared across time points to calculate fold changes.
Male, 8-week-old C57BL/6 mice (Charles River; Hollister, CA, USA) were administered 3 U/kg bleomycin (Teva) or vehicle (water) via oropharyngeal aspiration while under anesthesia (ketamine/xylazine). […] Total lung weights were recorded, and right lobes were snap-frozen and stored at -80 °C. […]
OHP levels in mouse lung tissue were determined similar to that previously described (E15) using the QuickZyme hydroxyproline assay kit (QuickZyme Biosciences; Leiden, Netherlands). […] Hydrolysate was adjusted to 4 M HCl and analyzed for OHP concentrations in a 96-well format, according to manufacturer’s instruction. Absorbance was read at 570 nm with an Infinite M200 PRO microtiter plate reader (Tecan; Crailsheim, Germany) and total lung OHP levels calculated from OHP concentrations (µg OHP/mg tissue) by normalizing to total lung weight. […]
Formalin-fixed paraffin embedded sections prepared from mouse lung tissue underwent SHG imaging to characterize both the quantity and quality of fibrillar collagen deposition using methods similar to that previously described (E16). […]

The test system of assay [5] is other αv integrins. Nature of the assay: Human integrin ligand-binding assays, selectivity over the panel. As to the method:
as §1
Microplates were coated with recombinant human integrins dissolved in PBS (2 µg/ml, overnight at room temperature). Following removal of the coating solution, plates were washed with PBS. Plates were blocked with 200 µL/well of blocking buffer (2% bovine serum albumin [BSA] in PBS) at 37 °C for 1 h. Serial dilutions of test compounds and 2 µg/ml of recombinant ligands were added: fibronectin (R&D Systems #1918-Fn) for integrin αvβ1, LAP (Sino Biological #10804-H08H1; Beijing, China) for integrins αvβ6 and αvβ8, or biotin-tagged vitronectin (Molecular Innovations, Inc. #HVNUBIO) for integrins αvβ3 and αvβ5 in binding/wash buffer (50 mM Tris-HCl, pH 7.5; 0.1% BSA, NaCl 150 mM; 0.02% Tween-20; 1 mM CaCl2; 1 mM MnCl2; 1 mM MgCl2). Plates were incubated for 2 h at 25 °C, washed, and incubated for 1 h with biotin-labeled anti-fibronectin or anti-LAP antibodies (for αvβ1 or αvβ6/αvβ8, respectively). After washing, bound antibody was incubated with peroxidase-conjugated streptavidin (Thermo Fisher #21134; 1:2000 dilution) for 30 minutes (min) at room temperature. Following an additional washing step, 100 μL TMB substrate (BD Biosciences #555214; San Jose, CA, USA) was added and integrin binding was quantified by measuring absorbance at 450 nm by a Tecan Spark 10M plate reader (Tecan; Männedorf, Switzerland).

T3 sequence (P06756 31-1048): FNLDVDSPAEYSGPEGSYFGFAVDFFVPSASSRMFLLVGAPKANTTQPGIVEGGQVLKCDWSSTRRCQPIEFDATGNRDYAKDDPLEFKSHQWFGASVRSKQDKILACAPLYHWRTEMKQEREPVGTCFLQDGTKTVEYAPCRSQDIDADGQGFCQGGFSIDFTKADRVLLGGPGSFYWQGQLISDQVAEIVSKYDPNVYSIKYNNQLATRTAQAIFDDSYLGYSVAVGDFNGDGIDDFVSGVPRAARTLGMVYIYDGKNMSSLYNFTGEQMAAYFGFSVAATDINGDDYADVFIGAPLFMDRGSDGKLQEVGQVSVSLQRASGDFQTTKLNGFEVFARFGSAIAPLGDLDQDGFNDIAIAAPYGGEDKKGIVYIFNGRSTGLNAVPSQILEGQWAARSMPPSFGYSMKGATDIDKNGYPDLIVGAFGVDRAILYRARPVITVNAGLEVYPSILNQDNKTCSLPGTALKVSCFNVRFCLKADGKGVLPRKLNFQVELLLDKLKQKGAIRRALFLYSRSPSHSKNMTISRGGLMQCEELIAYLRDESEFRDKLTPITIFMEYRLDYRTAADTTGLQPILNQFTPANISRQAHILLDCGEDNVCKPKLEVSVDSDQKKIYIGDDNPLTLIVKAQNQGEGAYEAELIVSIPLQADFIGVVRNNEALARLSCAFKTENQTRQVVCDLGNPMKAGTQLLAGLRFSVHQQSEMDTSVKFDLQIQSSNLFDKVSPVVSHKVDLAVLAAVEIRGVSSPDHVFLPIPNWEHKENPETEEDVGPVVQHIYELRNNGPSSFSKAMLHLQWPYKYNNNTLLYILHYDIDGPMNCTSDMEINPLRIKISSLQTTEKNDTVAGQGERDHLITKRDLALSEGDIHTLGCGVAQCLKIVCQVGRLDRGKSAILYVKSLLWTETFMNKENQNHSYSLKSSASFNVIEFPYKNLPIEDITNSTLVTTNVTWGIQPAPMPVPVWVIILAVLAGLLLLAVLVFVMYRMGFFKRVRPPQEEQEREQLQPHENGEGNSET
T3 sequence (P18564 22-788): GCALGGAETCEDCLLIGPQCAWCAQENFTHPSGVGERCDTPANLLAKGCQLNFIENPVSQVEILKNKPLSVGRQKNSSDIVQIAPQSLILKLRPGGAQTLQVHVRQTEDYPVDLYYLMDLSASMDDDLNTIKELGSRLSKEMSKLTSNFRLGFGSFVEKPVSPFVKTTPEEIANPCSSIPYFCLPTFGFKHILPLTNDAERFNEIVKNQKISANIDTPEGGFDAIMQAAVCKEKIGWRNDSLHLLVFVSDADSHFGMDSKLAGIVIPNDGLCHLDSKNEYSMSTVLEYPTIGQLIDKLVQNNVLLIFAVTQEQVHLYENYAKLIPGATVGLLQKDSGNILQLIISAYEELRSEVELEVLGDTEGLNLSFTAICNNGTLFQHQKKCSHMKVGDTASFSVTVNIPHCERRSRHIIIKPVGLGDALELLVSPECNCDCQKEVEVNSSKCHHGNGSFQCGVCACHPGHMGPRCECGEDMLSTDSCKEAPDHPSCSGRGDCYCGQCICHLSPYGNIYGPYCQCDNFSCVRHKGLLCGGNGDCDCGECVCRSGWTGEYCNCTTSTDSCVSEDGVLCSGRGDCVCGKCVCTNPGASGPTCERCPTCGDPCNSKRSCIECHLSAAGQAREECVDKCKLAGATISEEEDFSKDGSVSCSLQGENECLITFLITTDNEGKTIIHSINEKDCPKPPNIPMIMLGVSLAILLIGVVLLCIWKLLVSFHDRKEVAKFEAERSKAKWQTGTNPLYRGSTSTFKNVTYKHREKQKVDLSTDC
T1 sequence (P06756 31-992 limits assumed): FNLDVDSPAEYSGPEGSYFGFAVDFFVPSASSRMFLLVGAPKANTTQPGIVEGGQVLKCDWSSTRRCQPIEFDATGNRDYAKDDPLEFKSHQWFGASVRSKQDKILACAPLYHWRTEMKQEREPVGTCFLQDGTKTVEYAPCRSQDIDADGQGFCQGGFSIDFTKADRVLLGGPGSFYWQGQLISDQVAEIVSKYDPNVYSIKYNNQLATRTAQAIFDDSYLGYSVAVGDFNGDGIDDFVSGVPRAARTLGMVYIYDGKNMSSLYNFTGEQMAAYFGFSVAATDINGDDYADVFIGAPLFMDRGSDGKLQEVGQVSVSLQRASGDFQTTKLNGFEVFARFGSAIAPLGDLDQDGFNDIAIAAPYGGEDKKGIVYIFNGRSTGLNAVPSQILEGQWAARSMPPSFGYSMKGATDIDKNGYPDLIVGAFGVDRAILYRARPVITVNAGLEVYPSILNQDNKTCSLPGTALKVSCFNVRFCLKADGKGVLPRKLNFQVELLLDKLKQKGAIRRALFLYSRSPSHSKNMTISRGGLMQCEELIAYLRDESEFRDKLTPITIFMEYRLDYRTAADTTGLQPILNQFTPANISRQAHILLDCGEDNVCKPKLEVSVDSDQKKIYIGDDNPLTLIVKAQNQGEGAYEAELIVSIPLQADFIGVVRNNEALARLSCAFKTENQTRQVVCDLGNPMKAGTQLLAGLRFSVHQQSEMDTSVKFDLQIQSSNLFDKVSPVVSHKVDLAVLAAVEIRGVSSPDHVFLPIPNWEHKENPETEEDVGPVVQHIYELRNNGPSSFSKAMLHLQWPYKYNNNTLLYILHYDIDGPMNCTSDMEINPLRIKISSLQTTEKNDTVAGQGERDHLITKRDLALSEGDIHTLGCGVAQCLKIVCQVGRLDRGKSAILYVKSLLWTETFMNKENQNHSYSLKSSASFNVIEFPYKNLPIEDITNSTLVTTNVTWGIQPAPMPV
T1 sequence (P05106 27-718 limits assumed): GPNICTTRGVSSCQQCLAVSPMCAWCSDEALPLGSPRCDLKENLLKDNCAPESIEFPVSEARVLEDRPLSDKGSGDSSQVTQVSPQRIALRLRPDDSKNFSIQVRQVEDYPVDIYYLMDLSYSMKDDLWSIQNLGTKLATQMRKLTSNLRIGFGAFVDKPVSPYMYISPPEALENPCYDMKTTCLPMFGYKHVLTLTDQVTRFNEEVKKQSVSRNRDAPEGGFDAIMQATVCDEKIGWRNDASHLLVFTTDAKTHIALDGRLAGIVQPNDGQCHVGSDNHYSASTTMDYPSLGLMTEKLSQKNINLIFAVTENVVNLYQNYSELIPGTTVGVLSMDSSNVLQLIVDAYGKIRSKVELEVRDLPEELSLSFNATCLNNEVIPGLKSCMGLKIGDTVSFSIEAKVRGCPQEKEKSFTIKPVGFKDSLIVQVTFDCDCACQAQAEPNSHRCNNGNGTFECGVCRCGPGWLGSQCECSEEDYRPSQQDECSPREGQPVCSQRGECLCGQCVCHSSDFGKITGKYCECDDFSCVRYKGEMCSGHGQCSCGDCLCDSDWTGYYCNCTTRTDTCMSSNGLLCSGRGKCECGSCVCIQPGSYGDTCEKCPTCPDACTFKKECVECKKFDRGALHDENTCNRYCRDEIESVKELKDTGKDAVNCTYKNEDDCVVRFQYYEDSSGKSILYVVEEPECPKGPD
T2 sequence (P06756 31-992 limits assumed): as the sequence (P06756 31-992 limits assumed) above
T2 sequence (P18084 24-719 limits assumed): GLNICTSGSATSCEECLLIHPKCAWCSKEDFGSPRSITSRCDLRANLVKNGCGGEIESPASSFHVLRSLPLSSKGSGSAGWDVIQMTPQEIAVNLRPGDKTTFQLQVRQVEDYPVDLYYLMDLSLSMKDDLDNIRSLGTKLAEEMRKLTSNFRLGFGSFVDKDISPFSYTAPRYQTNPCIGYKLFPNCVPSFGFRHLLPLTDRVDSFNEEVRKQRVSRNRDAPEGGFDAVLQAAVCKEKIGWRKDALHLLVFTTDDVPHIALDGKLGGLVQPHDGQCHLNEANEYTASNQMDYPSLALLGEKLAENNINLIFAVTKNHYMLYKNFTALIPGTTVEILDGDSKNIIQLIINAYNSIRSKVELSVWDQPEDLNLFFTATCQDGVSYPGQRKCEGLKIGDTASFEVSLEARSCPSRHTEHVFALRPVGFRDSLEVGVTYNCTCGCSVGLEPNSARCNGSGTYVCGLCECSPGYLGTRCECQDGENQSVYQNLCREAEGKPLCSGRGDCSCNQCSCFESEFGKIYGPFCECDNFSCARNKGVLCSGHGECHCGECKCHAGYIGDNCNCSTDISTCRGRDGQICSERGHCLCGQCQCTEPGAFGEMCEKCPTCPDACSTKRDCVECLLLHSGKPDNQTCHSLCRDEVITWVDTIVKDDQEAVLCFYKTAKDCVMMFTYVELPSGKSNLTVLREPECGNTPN

As a reminder, the IC50 is the midpoint of a concentration-inhibition curve. The low end stands for greater potency in that assay, the high end for weaker potency in that assay. Turning to `COCCN(CCCCc1ccc2c(n1)NCCC2)CC[C@H](Nc1ncnc2ccccc12)C(=O)O` [PLN-74809], the figures for the IC50 in assay [1], in assay [2] and in assay [3] were > 10 µM, 6.99 µM and 0.0298 µM, respectively. In addition, the figures for the “Fold selectivity (vs αvβ6)” value in assay [1] (ligand binding), in assay [2] (ligand binding) and in assay [3] (TGF-β activation) were > 1754×, 1226× and 1×, respectively. Also, in assay [4] (oral 100, 250, 500 mg/kg BID), the “Smad3 phosphorylation in lung tissue” value was “dose-dependently blocked”. Besides, the “interstitial fibrillar collagen deposition (SHG imaging)” value in assay [4] (oral 100, 250, 500 mg/kg BID, vs vehicle) is given as “dose-dependent, significant reduction”. For the same molecule, the “total pulmonary hydroxyproline levels” value in assay [4] (oral 100-500 mg/kg BID, vs vehicle (Fig. S3A)) is reported as “dose-dependently reduced”. Also, in assay [4] (oral 100-500 mg/kg BID, vs vehicle (Fig. S3B)), the “hydroxyproline deposition rate (2H incorporation)” value was “dose-dependently reduced”. Also, the “selectivity over other αv integrins” value in assay [5] is given as ≥ 445 fold.
